Laboratory results from US9951035B2, “Selective matrix metalloproteinase inhibitors” (University of Notre Dame du Lac, priority 2014, dated 2018).
Values after ≈ are worked out from the molar mass of the structure shown. Values joined by “and” are separate entries in the source; they are usually repeats but may differ in a detail not shown here. Identical values can stand only once. “Also recorded” adds a separate entry of the source. Counter-ions that a name gives are not always drawn. Like-named read-outs stand apart in the source and are kept apart here.

What was measured:
[1] = target: MMP-14 (Homo sapiens (Human), UniProt P50281); assay: Enzyme inhibition studies, MMP-14 catalytic domain; assay type: biochemical
[2] = target: MMP-1 (Homo sapiens (Human), UniProt P03956); assay: Enzyme inhibition studies, MMP-1 catalytic domain; assay type: biochemical
[3] = target: MMP-3 (Homo sapiens (Human), UniProt P08254); assay: Enzyme inhibition studies, MMP-3 catalytic domain; assay type: biochemical
[4] = target: MMP-7 (Homo sapiens (Human), UniProt P09237); assay: Enzyme inhibition studies, MMP-7; assay type: biochemical
[5] = target: ADAM9 (Homo sapiens (Human), UniProt Q13443); assay: Enzyme inhibition studies, ADAM9; assay type: biochemical; details: at 100 μM
[6] = target: ADAM10 (Homo sapiens (Human), UniProt O14672); assay: Enzyme inhibition studies, ADAM10; assay type: biochemical; details: at 100 μM
[7] = Stability in buffers of the kinetic assays; assay type: physicochemical
Description: Human recombinant active MMP-2 and MMP-7, and the catalytic domains of MMP-3 and MMP-14/MT1-MMP were purchased from EMD Chemicals, Inc. (San Diego, Calif., USA); human recombinant catalytic domains of MMP-1, MMP-8, and MMP-9 were purchased from Enzo Life Sciences, Inc. (Farmingdale, N.Y., USA); human recombinant active ADAM9 and ADAM10 were purchased from R&D Systems (Minneapolis, Minn., USA). Fluorogenic substrates MOCAc-Pro-Leu-Gly-Leu-A2pr(Dnp)-Ala-Arg-NH2 (for MMP-2, MMP-7, MMP-9 and MMP-14) and MOCAc-Arg-Pro-Lys-Pro-Val-Glu-Nva-Trp-Arg-Lys(Dnp)-NH2 (for MMP-3) were purchased from Peptides International (Louisville, Ky., USA); Mca-KPLGL-Dpa-AR-NH2 (for MMP-1, MMP-8 and ADAM10) and Mca-PLAQAV-Dpa-RSSSR-NH2 (for ADAM9) were purchased from R&D Systems (Minneapolis, Minn., USA). […] Inhibitor stock solutions (10 mM) were prepared fresh in DMSO before enzyme inhibition assays. We followed the same methodology for enzyme inhibition studies as reported by Page-McCaw et al. (Nat. Rev. Mol. Cell Biol. 2007, 8, 221-233). Enzyme inhibition studies were carried out using a Cary Eclipse fluorescence spectrophotometer (Varian, Walnut Creek, Calif., USA). Compounds 4, 5, 6 and 7 were stable in the buffers that were used in the kinetic assays.

[8] = Pharmacokinetics and brain distribution after single iv dose; details: for crossing of the blood-brain barrier: in words
Description: (§1) Mice (male CD-1, 6-7 weeks old, ˜30 g body weight, specific pathogen free) were purchased from Charles River Laboratories, Inc. (Wilmington, Mass., USA).
(§2) Samples were analyzed by ultraperformance liquid chromatography (UPLC)/(+)electrospray ionization (ESI)-multiple-reaction monitoring (MRM) with a reversed phase C18 column (Acclaim® RSLC 120 C18, 2.2 μm, 120 Å, 2.1×100 mm, Dionex, Sunnyvale, Calif., USA).
(§3) Quantification of the compounds in plasma and brain was obtained using peak-area ratios of the compounds to the internal standard, and the linear-regression parameters obtained from the calibration curves.

[9] = Water solubility (filtrate of saturated aqueous solution, UPLC-MRM)
[10] = target: T1, MMP-2 (Homo sapiens (Human), UniProt P08253); assay: Enzyme inhibition studies, MMP-2; assay type: biochemical; details: for Ki: slow-binding, Ki calculated from koff/kon, read-out: Ki
[11] = target: T2, MMP-9 (Homo sapiens (Human), UniProt P14780); assay: Enzyme inhibition studies, MMP-9 catalytic domain; assay type: biochemical; details: for residence time: reciprocal of koff
[12] = target: MMP-8 (Homo sapiens (Human), UniProt P22894); assay: Enzyme inhibition studies, MMP-8 catalytic domain; assay type: biochemical
[13] = mouse, in vivo, iv, 5 mg/kg
Description: as §1, §2, §3

[14] = in vivo; details: male, CD-1, mouse, iv, 5 mg/kg
Description: as §1, §2, §3

[15] = physchem; details: water, thermodynamic from solid
[16] = target: T1, MMP-2; details: literature / previously reported; cited from earlier work
[17] = target: T2, MMP-9; details: literature / previously reported; cited from earlier work
[18] = 2 min after 5 mg/kg single iv, mice, HCl salt
[19] = 5 min after 5 mg/kg single iv, mice
[20] = 10 min after 5 mg/kg single iv, mice
[21] = 30 min after 5 mg/kg single iv, mice
[22] = 60 min after 5 mg/kg single iv, mice
[23] = 90 min after 5 mg/kg single iv, mice
[24] = 120 min after 5 mg/kg single iv, mice
[25] = 240 min after 5 mg/kg single iv, mice
[26] = male, CD-1, mouse, in vivo, 5 mg/kg
[27] = male, CD-1, mouse, in vivo, iv, 5 mg/kg
[28] = plasma, 5 mg/kg single iv, mice
[29] = catalytic domain, slow-binding, Ki from koff/kon, read-out: Ki
[30] = 2 min after 5 mg/kg single iv, mice

ADAM10, sequence (O14672 214-672): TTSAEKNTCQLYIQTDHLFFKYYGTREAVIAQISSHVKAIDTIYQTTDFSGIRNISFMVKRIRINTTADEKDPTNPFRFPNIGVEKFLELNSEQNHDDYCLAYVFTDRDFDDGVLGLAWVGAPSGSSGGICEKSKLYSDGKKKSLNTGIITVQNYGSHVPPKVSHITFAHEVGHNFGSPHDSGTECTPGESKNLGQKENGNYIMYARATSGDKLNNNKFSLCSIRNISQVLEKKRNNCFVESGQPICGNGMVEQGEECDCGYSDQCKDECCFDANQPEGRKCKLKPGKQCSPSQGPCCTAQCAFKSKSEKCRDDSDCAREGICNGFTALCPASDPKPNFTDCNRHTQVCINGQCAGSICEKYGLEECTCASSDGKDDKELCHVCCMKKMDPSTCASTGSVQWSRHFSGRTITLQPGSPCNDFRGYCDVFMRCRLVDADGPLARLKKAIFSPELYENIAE
MMP-8, sequence (P22894 100-262): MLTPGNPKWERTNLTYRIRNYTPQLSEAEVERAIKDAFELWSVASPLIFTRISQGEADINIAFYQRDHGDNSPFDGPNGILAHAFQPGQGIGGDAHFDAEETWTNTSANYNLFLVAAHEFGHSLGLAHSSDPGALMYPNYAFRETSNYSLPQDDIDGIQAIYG
MMP-1, sequence (P03956 98-276): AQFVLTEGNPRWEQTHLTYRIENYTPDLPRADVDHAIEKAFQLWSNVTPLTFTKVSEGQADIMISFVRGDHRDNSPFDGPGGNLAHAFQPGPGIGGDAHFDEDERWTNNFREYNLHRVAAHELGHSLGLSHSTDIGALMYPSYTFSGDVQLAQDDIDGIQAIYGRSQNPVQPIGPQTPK
T2 sequence (P14780 107-444): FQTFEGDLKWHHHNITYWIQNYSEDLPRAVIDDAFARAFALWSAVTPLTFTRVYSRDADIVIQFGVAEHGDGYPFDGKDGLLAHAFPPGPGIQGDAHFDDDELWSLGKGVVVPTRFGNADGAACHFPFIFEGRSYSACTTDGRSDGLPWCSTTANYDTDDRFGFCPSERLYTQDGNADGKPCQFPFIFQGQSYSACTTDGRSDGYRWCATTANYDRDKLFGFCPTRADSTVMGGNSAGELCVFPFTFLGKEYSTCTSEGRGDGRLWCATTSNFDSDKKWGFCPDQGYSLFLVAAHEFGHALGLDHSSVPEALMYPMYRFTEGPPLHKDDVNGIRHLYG
ADAM9, sequence (Q13443 206-697): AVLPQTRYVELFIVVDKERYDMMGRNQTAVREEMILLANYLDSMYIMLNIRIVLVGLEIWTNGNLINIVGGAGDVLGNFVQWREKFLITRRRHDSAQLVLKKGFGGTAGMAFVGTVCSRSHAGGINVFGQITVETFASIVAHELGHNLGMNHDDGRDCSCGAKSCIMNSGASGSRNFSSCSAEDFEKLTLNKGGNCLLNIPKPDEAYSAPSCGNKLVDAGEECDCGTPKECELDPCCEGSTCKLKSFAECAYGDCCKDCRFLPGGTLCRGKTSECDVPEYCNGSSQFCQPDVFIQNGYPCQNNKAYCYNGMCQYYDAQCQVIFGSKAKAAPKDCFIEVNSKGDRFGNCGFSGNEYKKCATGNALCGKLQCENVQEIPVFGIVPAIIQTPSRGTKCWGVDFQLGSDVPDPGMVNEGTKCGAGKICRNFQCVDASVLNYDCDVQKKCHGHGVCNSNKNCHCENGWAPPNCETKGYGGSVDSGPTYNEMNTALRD
T1 sequence (P08253 110-660): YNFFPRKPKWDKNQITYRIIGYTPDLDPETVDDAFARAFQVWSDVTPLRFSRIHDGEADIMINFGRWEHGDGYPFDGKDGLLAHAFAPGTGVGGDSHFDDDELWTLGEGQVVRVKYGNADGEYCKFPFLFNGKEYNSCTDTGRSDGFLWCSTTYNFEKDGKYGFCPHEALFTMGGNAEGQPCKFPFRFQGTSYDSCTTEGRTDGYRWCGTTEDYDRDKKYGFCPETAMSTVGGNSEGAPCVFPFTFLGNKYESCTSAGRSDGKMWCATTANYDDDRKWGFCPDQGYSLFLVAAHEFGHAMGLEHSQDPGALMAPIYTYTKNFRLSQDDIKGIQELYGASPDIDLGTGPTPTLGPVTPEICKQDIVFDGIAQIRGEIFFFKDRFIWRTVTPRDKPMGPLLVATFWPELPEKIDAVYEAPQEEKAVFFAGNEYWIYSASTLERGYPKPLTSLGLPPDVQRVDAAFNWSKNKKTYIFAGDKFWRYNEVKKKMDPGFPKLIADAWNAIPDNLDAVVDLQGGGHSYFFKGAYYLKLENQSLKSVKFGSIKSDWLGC
MMP-3, sequence (P08254 100-272): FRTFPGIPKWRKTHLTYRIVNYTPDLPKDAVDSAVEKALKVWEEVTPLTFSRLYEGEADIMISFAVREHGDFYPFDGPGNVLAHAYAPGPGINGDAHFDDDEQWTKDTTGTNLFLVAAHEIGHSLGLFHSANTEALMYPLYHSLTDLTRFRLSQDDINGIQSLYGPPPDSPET
MMP-7, sequence (P09237 95-267): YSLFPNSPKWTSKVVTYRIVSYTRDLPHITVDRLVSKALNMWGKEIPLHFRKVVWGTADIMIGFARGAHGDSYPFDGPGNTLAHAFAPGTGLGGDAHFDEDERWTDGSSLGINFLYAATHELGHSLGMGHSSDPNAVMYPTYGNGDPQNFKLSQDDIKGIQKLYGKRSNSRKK

## N=C(N)Nc1ccc(Oc2ccc(S(=O)(=O)CC3CS3)cc2)cc1 (centres unmarked) [Compound 7, 1-(4-(4-((Thiiran-2-ylmethyl)sulfonyl)phenoxy)phenyl)guanidine HCl salt]
[1]
  Ki: 40 ± 2 nM
[2]
  inhibition at 100 µM: 4%
[3]
  Ki: 19000 ± 1000 nM
[4]
  inhibition at 100 µM: 4%
[5]
  inhibition at 100 µM: 14%
[6]
  inhibition at 100 µM: 25%
[7]; in words
  stability in the buffers used in the kinetic assays: stable
[8]; 5 mg/kg single iv, mice
  time brain levels above Ki for MMP-2: 120 min
  time brain levels above Ki for MMP-9: 30 min
  time plasma levels above Ki for MMP-2: 90 min
  time plasma levels above Ki for MMP-9: 60 min
[8]; [18]
  Brain concentration: 0.577±0.560 pmol/mg tissue
  Plasma concentration: 12600 ± 10900 nM
[8]; [19]
  Brain concentration: 0.476 ± 0.470 pmol/mg tissue
[8]; [20]
  Brain concentration: 0.216 ± 0.071 pmol/mg tissue
[8]; [21]
  Brain concentration: 0.117 ± 0.024 pmol/mg tissue
[8]; [22]
  Brain concentration: 0.0228 ± 0.0033 pmol/mg tissue
[8]; [23]
  Brain concentration: 0.0409 ± 0.0155 pmol/mg tissue
[8]; [24]
  Brain concentration: 0.0222 ± 0.0072 pmol/mg tissue
[8]; [25]
  Brain concentration: 0.0161 ± 0.0035 pmol/mg tissue
[8]; brain, 5 mg/kg single iv, mice
  AUC0-last: 14.3 pmol·min/mg
  AUC0-∞: 17.4 pmol·min/mg
  t1/2α: 47 min
  t1/2β: 133 min
[8]
  crossing of the blood-brain barrier: cross the blood-brain barrier
[8]; [26]
  concentration at 2 min: 12600 ± 10900 nM
  concentration at 5 min: 4370 ± 2630 nM
  concentration at 10 min: 3920 ± 780 nM
  concentration at 30 min: 482 ± 229 nM
  concentration at 60 min: 119 ± 51 nM
  concentration at 90 min: 22 ± 8 nM
  concentration at 120 min: 6.3 ± 4.9 nM
  concentration at 240 min: 3.2 ± 2.66 nM
[8]; [27]
  AUC(0-inf): 2.13 µM·h
  AUC(0-t): 2.13 µM·h
  Kp: 0.136
  Vd: 1.08 L/kg
  clearance: 107 mL/min/kg
[8]; [28]
  CL: 107 mL/min/kg
  t1/2α: 5.22 min
  t1/2β: 64.2 min
[9]
  Aq. solubility: 32000 µg/mL
[9]; thermodynamic from solid
  solubility: 32000 µg/mL

## NCc1nc(-c2ccc(Oc3ccc(S(=O)(=O)CC4CS4)cc3)cc2)no1 (centres unmarked) [Compound 4, (3-(4-(4-((Thiiran-2-ylmethyl)sulfonyl)phenoxy)phenyl)-1,2,4-oxadiazol-5-yl)methanamine.HCl salt]
[10]
  kon: 521 ± 22 M⁻¹ s⁻¹
  Ki: 630 ± 60 nM
[10]; read-out: 10^3 koff
  koff: 0.33 ± 0.027 s⁻¹
[10]; reciprocal of koff
  residence time: 50.5 ± 4.1 min
[11]
  kon: 32 ± 2.3 M⁻¹ s⁻¹
  residence time: 15.2 ± 0.4 min
[11]; [29]
  Ki: 34000 nM
[11]; read-out: 10^3 koff
  koff: 1.1 ± 0.03 s⁻¹
[11]; read-out: residence time
  residence time: 15.2 to 47.4 min
[1]
  kon: 121 ± 11 M⁻¹ s⁻¹
[1]; [29]
  Ki: 9400 nM
[1]; read-out: 10^3 koff
  koff: 1.14 ± 0.09 s⁻¹
[1]; reciprocal of koff
  residence time: 14.6 ± 1.1 min
[2]
  inhibition at 100 µM: 8%
[3]; at 100 μM
  inhibition at 100 µM: 17%
[4]
  inhibition at 100 µM: 8%
[12]
  inhibition at 50 µM: 24%
[5]
  inhibition at 100 µM: 5%
[6]
  inhibition at 100 µM: 1%
[7]
  stability in the buffers used in the kinetic assays: stable
[13]
  AUC0-last: 108 pmol·min/mg
  AUC0-∞: 108 pmol·min/mg
  AUCbrain/AUCplasma: 0.138
[14]
  AUC(0-inf): 13.1 µM·h
  AUC(0-t): 13 µM·h
  Vd: 0.0213 L/kg
  clearance: 15.8 mL/min/kg
[15]
  solubility: 610 µg/mL
[8]; 5 mg/kg single iv, mice
  clearance as % of hepatic blood flow: 19%
[8]; [30]
  Brain concentration: 9.76±7.24 pmol/mg tissue
  Plasma concentration: 62400 ± 61600 nM
[8]; [19]
  Brain concentration: 5.98 ± 2.94 pmol/mg tissue
  Plasma concentration: 2190 ± 90 nM
[8]; [20]
  Brain concentration: 3.27 ± 0.14 pmol/mg tissue
  Plasma concentration: 2140 ± 1510 nM
[8]; [21]
  Brain concentration: 0.249 ± 0.127 pmol/mg tissue
  Plasma concentration: 97 ± 90 nM and 97 ± 92 nM
[8]; [22]
  Brain concentration: 0.0253 ± 0.0221 pmol/mg tissue
  Plasma concentration: 86.3 ± 30.3 nM
[8]; [23]
  Brain concentration: 0.00548 ± 0.00476 pmol/mg tissue
  Plasma concentration: 71.6 ± 50 nM
[8]; [24]
  Plasma concentration: 31.8 ± 31.1 nM
[8]; [25]
  Plasma concentration: 14.9 ± 12.9 nM
[8]
  crossing of the blood-brain barrier: cross the blood-brain barrier

## CC(=O)NCc1ccc(Oc2ccc(S(=O)(=O)CC3CS3)cc2)cc1 (centres unmarked) [Compound 6, N-(4-(4-((Thiiran-2-ylmethyl)sulfonyl)phenoxy)benzyl)acetamide]
[10]
  Ki: 230 nM and 234 nM
[11]; at 50 μM
  inhibition at 50 µM: 23%
[11]; at 50 μM, listed as ND-378
  Inhibition: Ki (MMP-9) 23% inhibition at 50 μM
[1]; at 50 μM
  inhibition at 50 µM: 23%
[1]; at 50 μM, listed as ND-378
  Inhibition: Ki (MMP-14) 23% inhibition at 50 μM
[2]
  inhibition at 100 µM: 37%
[2]; at 100 μM, listed as ND-378
  Inhibition: Ki (MMP-1) 37% inhibition at 100 μM
[3]; at 100 μM
  inhibition at 100 µM: 14%
[3]; at 100 μM, listed as ND-378
  Inhibition: Ki (MMP-3) 14% inhibition at 100 μM
[4]
  inhibition at 100 µM: 5%
[4]; at 100 μM, listed as ND-378
  Inhibition: Ki (MMP-7) 4.7% inhibition at 100 μM
[12]; Ki, catalytic domain, linear noncompetitive or linear competitive mechanism as footnoted
  Ki: 690 nM and 692 nM
[5]
  inhibition at 100 µM: 31%
[5]; listed as ND-378
  Inhibition: Ki (ADAM-9) 31% inhibition at 100 μM
[6]
  inhibition at 100 µM: 8%
[6]; listed as ND-378
  Inhibition: Ki (ADAM-10) 8% inhibition at 100 μM
[7]
  stability in the buffers used in the kinetic assays: stable
[13]
  AUC0-last: 66.5 pmol·min/mg
  AUC0-∞: 67.2 pmol·min/mg
[14]
  AUC(0-inf): 7.28 µM·h
  AUC(0-t): 7.25 µM·h
  Vd: 0.329 L/kg
  clearance: 30.3 mL/min/kg
[15]
  solubility: 25 µg/mL (≈ 66.2 µM)
[8]; 5 mg/kg single iv, mice
  clearance as % of hepatic blood flow: 35%
  time brain levels above Ki for MMP-2: 30 min
  time plasma levels above Ki for MMP-2: 30 min
[8]; [30]
  Brain concentration: 5.98±1.48 pmol/mg tissue
  Plasma concentration: 35000 ± 7700 nM
[8]; [19]
  Brain concentration: 4.90 ± 4.81 pmol/mg tissue
[8]; [20]
  Brain concentration: 0.954 ± 0.473 pmol/mg tissue
[8]; [21]
  Brain concentration: 0.231 ± 0.122 pmol/mg tissue
[8]; [22]
  Brain concentration: 0.0544 ± 0.0539 pmol/mg tissue
[8]; [23]
  Brain concentration: 0.0263 ± 0.0228 pmol/mg tissue
[8]; brain, 5 mg/kg single iv, mice
  t1/2α: 2.89 min
  t1/2β: 19.1 min
[8]; listed as ND-378
  crossing of the blood-brain barrier: cross the blood-brain barrier; also recorded: crosses the BBB
[8]; [26]
  concentration at 2 min: 35000 ± 7690 nM
  concentration at 5 min: 20300 ± 2800 nM
  concentration at 10 min: 14100 ± 5000 nM
  concentration at 30 min: 1640 ± 480 nM
  concentration at 60 min: 97.9 ± 6.5 nM
  concentration at 90 min: 82.7 ± 26.2 nM
  concentration at 120 min: 29.7 ± 16.8 nM
  concentration at 240 min: 19.3 ± 3.7 nM
[8]; [27]
  Kp: 0.154
[8]; [28]
  t1/2α: 6.31 min
  t1/2β: 86.6 min

## TIMP-1: tissue inhibitor of metalloproteinase 1, protein inhibitor of MMPs
[16]
  residence time bound to MMP-2: 7 min and 6.9 min
[17]
  residence time bound to MMP-9: 8 min
